Experimental data reported in patent US9446047B2, “Substituted 2,3-dihydro-1H-inden-1-one retinoic acid-related orphan nuclear receptor antagonists for treating multiple sclerosis” (Arrien Pharmaceuticals LLC, priority 2013, dated 2016).
Read-outs that look alike come from different tables or passages of the source.

Assays:
RORγ-LBD (RORγt) = target: T1, RORγ-LBD (RORγt) (Homo sapiens, UniProt P51449); experiment: TR-FRET RORγt Binding Assay; conditions: 6-His(GST)RORγ-LBD, SRC1_2 peptide
T1 construct: the 6-His-(GST) RORγ-LBD was used which expressed and purified from baculovirus infected Sf-21 insect cells; made in house; host or cells: baculovirus-infected Sf-21 insect cells
T1 sequence (P51449 269-508 limits assumed): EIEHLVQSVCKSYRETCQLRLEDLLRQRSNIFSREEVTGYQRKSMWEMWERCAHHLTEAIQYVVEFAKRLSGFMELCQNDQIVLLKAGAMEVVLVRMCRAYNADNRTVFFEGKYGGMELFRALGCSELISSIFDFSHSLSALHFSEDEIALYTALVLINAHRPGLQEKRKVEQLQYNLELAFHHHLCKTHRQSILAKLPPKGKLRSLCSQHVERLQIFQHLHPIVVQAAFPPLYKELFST
Procedure: TR-FRET RORγt Binding Assay: RORγ-LBD contains a 6-His and GST tag peptide from SRC1-2 an aminoterminal biotinyl-[…] was employed and the 6-His-(GST) RORγ-LBD was used which expressed and purified from baculovirus infected Sf-21 insect cells from Invitrogen and purified using glutathione sepharose. […] The peptide binding due to dose-curves of compounds was added the 0.1% DMSO. Fluorescence at wavelength 340 nm was read in each well of […] using an Envision fluorescence reader in Time Resolved mode after overnight incubation at 4° C.

[1] = tested on: IL-17 release from CD4+ T cells; experiment: Cytokine IL-17 estimation by HTRF, IL-17 release from CD4+ T cells; assay type: cell-based; conditions: Homo sapiens, IL-17 release from CD4+ T cells, HTRF, read-out: IL-17 Inhibition
From the text: The assay was designed to assess the potency of test compounds on IL-17 cytokine release from CD4+ T cells. In order to aid in the identification of potent inhibitors, the IC50's determined for the test compounds IL-17 release from CD4+ T cells through the generation of 10 point Dose Response Curves (DRC). Assay methods used to quantify IL-17 secretion is HTRF (Homogenous Time Resolved Fluorescence). IL-17 secreted is detected by anti-IL-17 MAb labeled with XL665, the second MAb labeled with Cryptate, which binds to specific epitopes of human IL-17. Upon close proximity of both acceptor and donor energy transfer (FRET) occurs. This technique has been further enhanced by using long-lived labels combined with the detection on a time-resolved fluorescence basis, allowing […] of prompt fluorescence interferences.
The assay was performed according to manufacturer's instruction. All the reagents were reconstituted according to instructions provided. The reagents were dispensed into a half area 96-well plate in the following order: […] or sample, IL-17 MAbXL665 and 5 μL IL-17 Cryptate. For the negative control, the standard or sample is replaced by […]. The plate is covered with a plate sealer and incubated at rt for 2 h. Following incubation, the plate sealer is removed and the plate is read using HTRF protocol on Envision Microplate reader. All of the data analysis was carried out using Microsoft Excel (2010) and IC50 was determined using GraphPad Prism 4 software. % Inhibition of the test compounds were determined utilizing the following formula: % Inhibition=100−(100*(Average Test Compound Counts−Average Negative Control Counts)/(Average Positive Control Counts−Average Negative Control Counts)).
We have established robust in vitro cell-based HTRF assay for the activation and stimulation of CD4+ T lymphocytes to T helper 17 (Th17) cell differentiation and IL-17 production.

RORγt = target: T2, RORγt (Homo sapiens, UniProt P51449); experiment: RORγt-activated IL-17A Prom/LUCPorter HEK 293 cells luciferase reporter assay; assay type: cell-based; conditions: IL-17A Prom/LUCPorter HEK 293 cells transfected with RORγt, 16 h
T2 construct: host or cells: IL-17A Prom/LUCPorter HEK 293 cell line (IMGENEX, IML-301)
T2 sequence (P51449 1-497 isoform P51449-2): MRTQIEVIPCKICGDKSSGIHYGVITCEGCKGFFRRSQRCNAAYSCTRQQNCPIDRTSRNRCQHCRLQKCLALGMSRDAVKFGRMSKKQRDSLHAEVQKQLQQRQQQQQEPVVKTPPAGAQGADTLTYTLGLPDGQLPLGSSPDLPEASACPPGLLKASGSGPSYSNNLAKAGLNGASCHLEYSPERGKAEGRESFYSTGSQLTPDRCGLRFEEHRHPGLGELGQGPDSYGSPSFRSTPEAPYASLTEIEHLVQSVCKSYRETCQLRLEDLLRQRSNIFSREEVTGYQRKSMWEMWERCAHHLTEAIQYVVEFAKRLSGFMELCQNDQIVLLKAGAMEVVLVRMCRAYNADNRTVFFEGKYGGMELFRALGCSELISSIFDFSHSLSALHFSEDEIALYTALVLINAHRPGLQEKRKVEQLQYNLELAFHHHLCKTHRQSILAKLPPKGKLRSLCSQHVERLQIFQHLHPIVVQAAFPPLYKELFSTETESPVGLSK
Procedure: Antagonistic (or inverse agonistic) effects of the test compounds on the RORγt-activated IL-17A Prom/LUCPorter™ HEK 293 cells were analyzed and IC50 of each compound was evaluated. […] Luciferase activity was analyzed using the luciferase reporter assay reagent (IMGENEX, LS100). The data were analyzed using Excel and Prism software. Percent activity was defined as 100×(1−(Well−Control A)/(Control B−Control A)), where Control A was the wells containing cells transfected with RORγt and Control B was the wells containing non-transfected cells. Both Controls A and B were treated with vehicle alone.

| SMILES | IC50 (RORγ-LBD (RORγt); read-out: RORγt Binding) [nM] | IC50 [1] [nM] | IC50 (RORγt; read-out: RORγt Cell Specific) [nM] | IC50 (RORγ-LBD (RORγt); RORγt Binding) [nM] | IC50 (RORγt; RORγt Cell Specific) [nM] |
| --- | --- | --- | --- | --- | --- |
| COc1cc2c(c(N3CCOCC3)c1OC)CC(Cc1ncccc1C(F)(F)F)C2=O (stereo not drawn) [compound 123, 5,6-dimethoxy-4-morpholino-2-((3-(trifluoromethyl)pyridin-2-yl)methyl)-2,3-dihydro-1H-inden-1-one] | > 1000 | > 1000 | > 1000 | – | – |
| COc1cc2c(cc1N1CCOCC1)CC(Cc1ccc(C(F)(F)F)cc1)C2=O (stereo not drawn) [compound 86] | > 1000 | > 1000 | > 1000 | – | – |
| COc1cc2c(cc1N1CCOCC1)CC(Cc1ccc(F)cc1F)C2=O (stereo not drawn) [compound 28, 2-(2,4-difluorobenzyl)-6-methoxy-5-morpholino-2,3-dihydro-1H-inden-1-one] | > 1000 | > 1000 | > 10000 | – | – |
| COc1cc2c(c(N3CCN(C)CC3)c1OC)CC(Cc1ccc(SC(F)(F)F)cc1)C2=O (stereo not drawn) [compound 125, 5,6-dimethoxy-4-(4-methylpiperazin-1-yl)-2-(4-((trifluoromethyl)thio)benzyl)-2,3-dihydro-1H-inden-1-one] | > 1000 | > 1000 | > 1000 | – | – |
| COc1cc2c(cc1N1CCOCC1)CC(Cc1cc(C(F)(F)F)ccc1F)C2=O (stereo not drawn) [compound 77, 2-(2-fluoro-5-(trifluoromethyl)benzyl)-6-methoxy-5-morpholino-2,3-dihydro-1H-inden-1-one] | > 1000 | > 1000 | > 1000 | – | – |
| COc1cc2c(cc1N1CCN(C)CC1)CC(Cc1cccc(C(F)(F)F)c1)C2=O (stereo not drawn) [compound 103, 6-methoxy-5-(4-methylpiperazin-1-yl)-2-(3-(trifluoromethyl)benzyl)-2,3-dihydro-1H-inden-1-one] | < 500 | > 1000 | > 1000 | – | – |
| COc1cc2c(cc1N1CCN(C)CC1)CC(Cc1ncccc1C(F)(F)F)C2=O (stereo not drawn) [compound 113] | < 500 | > 1000 | < 500 | – | – |
| COc1cc2c(cc1N1CCC(F)CC1)CC(Cc1ccc(SC(F)(F)F)cc1)C2=O (stereo not drawn) [compound 149, 5-(4-fluoropiperidin-1-yl)-6-methoxy-2-(4-((trifluoromethyl)thio)benzyl)-2,3-dihydro-1H-inden-1-one] | < 500 | > 1000 | > 10000 | – | – |
| COc1cc2c(cc1N1CCOCC1)CC(Cc1ccc(C(F)(F)F)c(Cl)c1)C2=O (stereo not drawn) [compound 92] | > 1000 | > 1000 | > 1000 | – | – |
| COc1cc2c(cc1N1CCC(C)CC1)CC(Cc1ccc(SC(F)(F)F)cc1)C2=O (stereo not drawn) [compound 140] | < 500 | > 10000 | > 1000 | – | – |

The remaining lines, values ahead:

| IC50 (RORγ-LBD (RORγt); read-out: RORγt Binding) [nM] | IC50 [1] [nM] | IC50 (RORγt; read-out: RORγt Cell Specific) [nM] | IC50 (RORγ-LBD (RORγt); RORγt Binding) [nM] | IC50 (RORγt; RORγt Cell Specific) [nM] | SMILES |
| --- | --- | --- | --- | --- | --- |
| > 1000 | < 500 | > 1000 | – | – | COc1cc2c(cc1-c1ccc(OC(F)(F)F)cc1F)CC(Cc1ncccc1C(F)(F)F)C2=O (stereo not drawn) [compound 216] |
| > 1000 | > 1000 | < 500 | – | – | COc1cc2c(cc1N1CCN(C)CC1)CC(Cc1cc(C(F)(F)F)ccc1Cl)C2=O (stereo not drawn) [compound 161, 2-(2-chloro-5-(trifluoromethyl)benzyl)-6-methoxy-5-(4-methylpiperazin-1-yl)-2,3-dihydro-1H-inden-1-one] |
| < 500 | < 500 | > 1000 | – | – | COc1cc2c(cc1N1CCNCC1)CC(Cc1ncccc1C(F)(F)F)C2=O (stereo not drawn) [compound 164] |
| > 1000 | > 1000 | > 1000 | – | – | COc1cc2c(cc1N1CCOCC1)CC(Cc1cccc(C(F)(F)F)c1F)C2=O (stereo not drawn) [compound 80] |
| > 1000 | > 1000 | > 1000 | – | – | COc1cc2c(cc1N1CCOCC1)CC(Cc1cc(Cl)ccc1C(F)(F)F)C2=O (stereo not drawn) [compound 53, 2-(5-chloro-2-(trifluoromethyl)benzyl)-6-methoxy-5-morpholino-2,3-dihydro-1H-inden-1-one] |
| > 1000 | < 500 | > 1000 | – | – | COc1cc2c(cc1O)C(=O)C(Cc1ccc(SC(F)(F)F)cc1)C2 (stereo not drawn) [compound 187] |
| – | < 500 | – | < 500 | < 500 | COc1cc2c(cc1N1CCOCC1)CC(Cc1cccc(C(F)(F)F)c1)C2=O (stereo not drawn) [compound 37, 6-methoxy-5-morpholino-2-(3-(trifluoromethyl)benzyl)-2,3-dihydro-1H-inden-1-one] |
| > 1000 | < 500 | > 1000 | – | – | COc1ccc2c(c1OC)CC(Cc1ccc(SC(F)(F)F)cc1)C2=O (stereo not drawn) [compound 167] |
| < 500 | < 500 | > 1000 | – | – | COc1cc2c(cc1O)C(=O)C(Cc1ncccc1C(F)(F)F)C2 (stereo not drawn) [compound 190] |
| < 500 | < 500 | < 500 | – | – | O=C1c2ccc(O)cc2CC1Cc1ccc(SC(F)(F)F)cc1 (stereo not drawn) [compound 193] |
| < 500 | < 500 | < 500 | – | – | COc1cc2c(cc1N1CCOCC1)CC(Cc1ncccc1C(F)(F)F)C2=O (stereo not drawn) [compound 68, 6-methoxy-5-morpholino-2-((3-(trifluoromethyl)pyridin-2-yl)methyl)-2,3-dihydro-1H-inden-1-one] |
